This note sets out measurements from PubChem BioAssay AID1745844 (Carcinogenic Potency Database (CPDB), 2022).

Activity calls are given as the source filed them. No rule for the calls is given here.

The series deals with rodent lifetime carcinogenesis bioassay, tumor incidence TD50. As to the kind of experiment: chronic cancer bioassays in animals – CPDB, compiled studies (AID 1745844).

As for `Nc1ccc2cc3ccc(N)cc3nc2c1`, the TD50 – broadly, the dose at which the toxic effect under study appears in half of the subjects – runs as follows: (mouse, strain B6C3F1, females, in feed, site: any site (literature study), lesion: several types, types named in the paper, dosed 103 weeks, study length 103 weeks) 86.2 mg/kg/day; (mouse, strain B6C3F1, females, in feed, site: liver, lesion: hepatocellular adenoma + hepatocellular carcinoma + neoplastic nodule, dosed 103 weeks, study length 103 weeks) 26.4 mg/kg/day; (mouse, strain B6C3F1, females, in feed, site: liver, lesion: hepatocellular adenoma + hepatocellular carcinoma, dosed 103 weeks, study length 103 weeks) 26.4 mg/kg/day; (mouse, strain B6C3F1, females, in feed, site: lung, lesion: alveolar/bronchiolar adenoma + alveolar/bronchiolar carcinoma, dosed 103 weeks, study length 103 weeks) 487 mg/kg/day; (mouse, strain B6C3F1, males, in feed, site: liver, lesion: hepatocellular adenoma + hepatocellular carcinoma + neoplastic nodule, dosed 103 weeks, study length 103 weeks) 248 mg/kg/day; (rat, strain Fischer 344, males, in feed, site: large intestine + small intestine, lesion: sarcoma, NOS + adenocarcinoma, NOS + leiomyosarcoma, dosed 109 weeks, study length 109 weeks) 213 mg/kg/day. The TD50 worked out at 254 mg/kg/day (rat, strain Fischer 344, males, in feed, site: liver, lesion: hepatocellular adenoma + hepatocellular carcinoma + neoplastic nodule, dosed 109 weeks, study length 109 weeks) and 254 mg/kg/day (rat, strain Fischer 344, males, in feed, site: liver, lesion: hepatocellular carcinoma + neoplastic nodule, dosed 109 weeks, study length 109 weeks).

With `CN(CCc1ccccc1)N=O`, the TD50 was 0.0401 mg/kg/day (rat, strain Fischer 344, males, in drinking water, site: esophagus, lesion: several types, types named in the paper, dosed 32 weeks, study length 127 weeks); 0.0422 mg/kg/day (rat, strain Fischer 344, males, in drinking water, site: esophagus, lesion: several types, types named in the paper, dosed 104 weeks, study length 127 weeks); 2.57 mg/kg/day (rat, strain Fischer 344, males, in drinking water, site: forestomach, lesion: basal-cell carcinoma, dosed 32 weeks, study length 127 weeks); 0.0422 mg/kg/day (rat, strain Fischer 344, males, in drinking water, site: forestomach, lesion: basal-cell carcinoma, dosed 104 weeks, study length 127 weeks); 2.21 mg/kg/day (rat, strain Fischer 344, males, in drinking water, site: forestomach, lesion: basal-cell papilloma, dosed 32 weeks, study length 127 weeks); 0.184 mg/kg/day (rat, strain Fischer 344, males, in drinking water, site: liver, lesion: hyperplastic nodule, dosed 104 weeks, study length 127 weeks). The TD50 is, setting by setting: (rat, strain Fischer 344, males, in drinking water, site: tongue, lesion: basal-cell carcinoma, dosed 104 weeks, study length 127 weeks) 0.184 mg/kg/day; (rat, strain Fischer 344, males, in drinking water, site: upper gastrointestinal tract, lesion: several types, types named in the paper, dosed 32 weeks, study length 127 weeks) 0.00788 mg/kg/day; (rat, strain Fischer 344, males, in drinking water, site: upper gastrointestinal tract, lesion: several types, types named in the paper, dosed 104 weeks, study length 127 weeks) 0.0136 mg/kg/day. For the same molecule, the carcinogen call (rat, strain Fischer 344, males, in drinking water, site: tongue, lesion: basal-cell carcinoma, dosed 32 weeks, study length 127 weeks) was “positive”.

For the molecule `OC[C@@H](O)[C@@H](O)[C@H](O)[C@H](O)CO`, the TD50 (mouse, strain B6C3F1, females, in feed, site: all sites, lesion: hemangiosarcoma, dosed 103 weeks, study length 104 weeks) was 46700 mg/kg/day (inactive); the TD50 (mouse, strain B6C3F1, females, in feed, site: all sites, lesion: lymphocytic leukemia, dosed 103 weeks, study length 104 weeks) was 48000 mg/kg/day; the TD50 (mouse, strain B6C3F1, males, in feed, site: lung, lesion: alveolar/bronchiolar adenoma + alveolar/bronchiolar carcinoma, dosed 103 weeks, study length 104 weeks) was found to be 98100 mg/kg/day; the TD50 (rat, strain Fischer 344, females, in feed, site: any site (literature study), lesion: several types, types named in the paper, dosed 103 weeks, study length 104 weeks) was 5000 mg/kg/day (inactive); the TD50 (rat, strain Fischer 344, males, in feed, site: liver, lesion: hepatocellular adenoma + hepatocellular carcinoma + neoplastic nodule, dosed 103 weeks, study length 104 weeks) amounted to 18000 mg/kg/day. For the same molecule, the carcinogen call (mouse, strain B6C3F1, males, in feed, site: any site (literature study), lesion: several types, types named in the paper, dosed 103 weeks, study length 104 weeks) was “negative (inactive)” and the carcinogen call (rat, strain Fischer 344, males, in feed, site: any site (literature study), lesion: several types, types named in the paper, dosed 103 weeks, study length 104 weeks) is “negative (inactive)”.

In the case of `CO[C@@H]1[C@@H](O[C@@H]2O[C@H](C)[C@@H](O[C@H]3C[C@@](C)(O)[C@@H](OC(=O)CC(C)C)[C@H](C)O3)[C@H](N(C)C)[C@H]2O)[C@@H](CC=O)C[C@@H](C)[C@@H](O)/C=C/C=C/C[C@@H](C)OC(=O)C[C@H]1OC(C)=O`, the carcinogen call by setting is: (rat, strain F344/DuCrj, females, in feed, site: liver, lesion: hepatocellular adenoma, dosed 104 weeks, study length 106 weeks) “negative (inactive)”; (rat, strain F344/DuCrj, females, in feed, site: liver, lesion: one or several types, types not named, dosed 52 weeks, study length 52 weeks) “negative (inactive)”; (rat, strain F344/DuCrj, males, in feed, site: liver, lesion: hepatocellular adenoma, dosed 104 weeks, study length 106 weeks) “negative (inactive)”; (rat, strain F344/DuCrj, males, in feed, site: liver, lesion: one or several types, types not named, dosed 52 weeks, study length 52 weeks) “negative (inactive)”. Also, the TD50 (rat, strain F344/DuCrj, males, in feed, site: liver, lesion: hepatocellular carcinoma, dosed 104 weeks, study length 106 weeks) is 51300 mg/kg/day (inactive).

Take `NC(=S)NNC=O`: under “rat, strain Sprague-Dawley, females, in feed, site: any site (literature study), lesion: several types, types named in the paper, dosed 46 weeks, study length 64 weeks”, the TD50 was 140 mg/kg/day (inactive).

Consider `O=C1c2ccccc2C(=O)c2c(O)cccc21`, for which the TD50 by setting is: (rat, strain ACI/n, males, in feed, site: cecum, lesion: adenocarcinoma, dosed 68 weeks, study length 68 weeks) 619 mg/kg/day; (rat, strain ACI/n, males, in feed, site: cecum, lesion: adenoma, dosed 68 weeks, study length 68 weeks) 277 mg/kg/day; (rat, strain ACI/n, males, in feed, site: colon, lesion: adenocarcinoma, dosed 68 weeks, study length 68 weeks) 246 mg/kg/day; (rat, strain ACI/n, males, in feed, site: colon, lesion: adenoma, dosed 68 weeks, study length 68 weeks) 219 mg/kg/day; (rat, strain ACI/n, males, in feed, site: forestomach, lesion: papilloma, dosed 68 weeks, study length 68 weeks) 789 mg/kg/day; (rat, strain ACI/n, males, in feed, site: large intestine, lesion: several types, types named in the paper, dosed 68 weeks, study length 68 weeks) 59.2 mg/kg/day. In addition, the TD50 is, setting by setting: (rat, strain ACI/n, males, in feed, site: liver, lesion: hepatocellular carcinoma, dosed 68 weeks, study length 68 weeks) 789 mg/kg/day; (rat, strain ACI/n, males, in feed, site: liver, lesion: neoplastic nodule, dosed 68 weeks, study length 68 weeks) 219 mg/kg/day; (rat, strain ACI/n, males, in feed, site: liver, lesion: several types, types named in the paper, dosed 68 weeks, study length 68 weeks) 219 mg/kg/day; (rat, strain ACI/n, males, in feed, site: stomach, glandular, lesion: adenoma, dosed 68 weeks, study length 68 weeks) 3340 mg/kg/day; (rat, strain ACI/n, males, in feed, site: stomach, lesion: several types, types named in the paper, dosed 68 weeks, study length 68 weeks) 619 mg/kg/day; (rat, strain Fischer 344, males, in feed, site: cecum, lesion: adenocarcinoma, dosed 78 weeks, study length 78 weeks) 432 mg/kg/day. For the same molecule, the TD50 runs as follows: (rat, strain Fischer 344, males, in feed, site: colon, lesion: adenocarcinoma, dosed 78 weeks, study length 78 weeks) 432 mg/kg/day; (rat, strain Fischer 344, males, in feed, site: colon, lesion: several types, types named in the paper, dosed 78 weeks, study length 78 weeks) 432 mg/kg/day; (rat, strain Fischer 344, males, in feed, site: large intestine, lesion: several types, types named in the paper, dosed 78 weeks, study length 78 weeks) 222 mg/kg/day.

Consider `Cc1cc(O)c(C(C)(C)C)cc1Sc1cc(C(C)(C)C)c(O)cc1C`, for which the TD50 (mouse, strain B6C3F1, females, in feed, site: any site (literature study), lesion: several types, types named in the paper, dosed 104 weeks, study length 104 weeks) is 484 mg/kg/day (inactive); the TD50 (mouse, strain B6C3F1, females, in feed, site: lung, lesion: alveolar/bronchiolar adenoma + alveolar/bronchiolar carcinoma, dosed 104 weeks, study length 104 weeks) was found to be 2020 mg/kg/day; the TD50 (rat, strain Fischer 344, females, in feed, site: any site (literature study), lesion: several types, types named in the paper, dosed 104 weeks, study length 104 weeks) was 196 mg/kg/day; the TD50 (rat, strain Fischer 344, females, in feed, site: liver, lesion: hepatocellular adenoma + hepatoblastoma + hepatocellular carcinoma, dosed 104 weeks, study length 104 weeks) stood at 3990 mg/kg/day; the TD50 (rat, strain Fischer 344, females, in feed, site: thyroid gland, lesion: c-cell adenoma + c-cell adenoma, bilateral, dosed 104 weeks, study length 104 weeks) was 361 mg/kg/day; the TD50 (rat, strain Fischer 344, females, in feed, site: thyroid gland, lesion: c-cell adenoma + c-cell carcinoma + c-cell adenoma, bilateral, dosed 104 weeks, study length 104 weeks) amounted to 325 mg/kg/day. The TD50 is 262 mg/kg/day (inactive) (rat, strain Fischer 344, females, in feed, site: uterus, lesion: endometrial stromal polyp + endometrial stromal sarcoma, dosed 104 weeks, study length 104 weeks); 286 mg/kg/day (rat, strain Fischer 344, females, in feed, site: uterus, lesion: endometrial stromal polyp, dosed 104 weeks, study length 104 weeks); 449 mg/kg/day (inactive) (rat, strain Fischer 344, males, in feed, site: any site (literature study), lesion: several types, types named in the paper, dosed 104 weeks, study length 104 weeks); 324 mg/kg/day (rat, strain Fischer 344, males, in feed, site: liver, lesion: hepatocellular adenoma + hepatoblastoma + hepatocellular carcinoma, dosed 104 weeks, study length 104 weeks). Further, the carcinogen call (mouse, strain B6C3F1, males, in feed, site: any site (literature study), lesion: several types, types named in the paper, dosed 104 weeks, study length 104 weeks) is “negative (inactive)”.
